Results from KR20140134170A, “신경염증 질환의 예방 또는 치료용 약학 조성물” (이화여자대학교 산학협력단, priority 2013, dated 2014).

Legend:
[1] = test system: TNF-α; assay: TNF-α release from LPS-activated BV2 microglia (sandwich ELISA); type: cell-based, mouse; details: LPS 100 ng/ml, compound 1 h before LPS
[2] = test system: nitric oxide [산화질소]; assay: Nitric oxide production by LPS-activated BV2 microglia (Griess reaction); type: cell-based, mouse; details: LPS 100 ng/ml, compound 1 h before LPS
[3] = test system: IL-6; assay: IL-6 production by LPS-activated BV2 microglia (sandwich ELISA); type: cell-based, mouse; details: LPS 100 ng/ml, compound 1 h before LPS
[4] = test system: IL-10; assay: IL-10 production by LPS-activated BV2 microglia (sandwich ELISA); type: cell-based, mouse; details: LPS 100 ng/ml, compound 1 h before LPS
[5] = test system: intracellular reactive oxygen species [세포내 활성산소종 (reactive oxygen species; ROS)]; assay: Intracellular reactive oxygen species in LPS-activated BV2 microglia (H2DCF-DA fluorescence); type: cell-based, mouse
[6] = test system: JNK; assay: JNK activation in LPS-activated BV2 microglia (western blot, p-JNK); type: cell-based, mouse; details: LPS 100 ng/ml 3 h, compound 1 h before LPS
[7] = test system: ERK; assay: ERK activation in LPS-activated BV2 microglia (western blot, p-ERK); type: cell-based, mouse; details: LPS 100 ng/ml 3 h, compound 1 h before LPS
[8] = test system: p38; assay: p38 activation in LPS-activated BV2 microglia (western blot, p-p38); type: cell-based, mouse; details: LPS 100 ng/ml 3 h, compound 1 h before LPS
[9] = test system: MK2; assay: MK2 activation in LPS-activated BV2 microglia (western blot, p-MK2); type: cell-based, mouse; details: LPS 100 ng/ml 3 h, compound 1 h before LPS
[10] = test system: NF-κB; assay: NF-κB DNA complex formation in LPS-activated BV2 microglia (EMSA); type: cell-based, mouse; details: LPS 100 ng/ml 3 h, compound 1 h before LPS
[11] = test system: AP-1; assay: AP-1 DNA complex formation in LPS-activated BV2 microglia (EMSA); type: cell-based, mouse; details: LPS 100 ng/ml 3 h, compound 1 h before LPS
[12] = test system: TNF-α; assay: Serum TNF-α in LPS systemic inflammation mice (sandwich ELISA); type: in vivo, mouse; details: 3 h after LPS
[13] = test system: TNF-α; assay: Cerebrospinal fluid TNF-α in LPS systemic inflammation mice (sandwich ELISA); type: in vivo, mouse; details: vs vehicle
[14] = test system: TNF-α; assay: TNF-α protein expression in cerebral cortex of LPS systemic inflammation mice (western blot); type: in vivo, mouse; details: 3 h after LPS, vs vehicle
[15] = test system: IL-1β; assay: IL-1β protein expression in cerebral cortex of LPS systemic inflammation mice (western blot); type: in vivo, mouse; details: 3 h after LPS, vs vehicle
[16] = test system: microglia [소교세포]; assay: Microglial activation in cerebral cortex of LPS systemic inflammation mice (Iba1 immunofluorescence); type: in vivo, mouse; details: 3 h after LPS
[17] = Brain infarct volume in ischemic stroke model MCAo/Rep (TTC staining); type: in vivo, rat; details: 5 mg/kg i.p. once immediately after reperfusion, 22 h after reperfusion
[18] = Neurological score in ischemic stroke model MCAo/Rep; type: in vivo, rat; details: 5 mg/kg i.p. once immediately after reperfusion; vs control; P=0.0047
[19] = test system: brain cells [뇌세포]; assay: Brain cell damage in ischemic stroke model MCAo/Rep (Nissl staining); type: in vivo, rat; details: 5 mg/kg i.p. once immediately after reperfusion; cortex and striatum; 22 h after reperfusion
[20] = test system: microglia [소교세포]; assay: Microglial activation in ischemic stroke model MCAo/Rep (Iba-1 immunohistochemistry); type: in vivo, rat; details: 5 mg/kg i.p. once immediately after reperfusion; stroke hemisphere; 22 h after reperfusion; stroke control 138.8±7.4; P<0.01
[21] = test system: TNF-α; assay: TNF-α producing cells in ischemic stroke model MCAo/Rep (immunohistochemistry); type: in vivo, rat; details: 5 mg/kg i.p. once immediately after reperfusion; stroke hemisphere; 22 h after reperfusion; stroke control 648.3±64.70; P<0.05

COc1ccc(S(=O)(=O)N2Cc3ccccc3C[C@@H]2C(=O)NO)cc1 [본 발명의 화합물, (3R)-(+)-[2-(4-메톡시벤젠설포닐)-1,2,3,4-테트라하이드로이소퀴놀린-3-하이드록사메이트]
TNF-α production [1]: 현저하게 감소됨 | nitric oxide production [2]: 농도 의존적으로 억제됨 | IL-6 production [3]: 농도 의존적으로 억제됨 | IL-10 production [4]: 생성을 증가시키는 것 | intracellular reactive oxygen species ([5]; compound at 10 μM or more, compared with control): 대조군과 유사한 수준으로 감소됨 | intracellular reactive oxygen species ([5]; concentration dependence): 농도 의존적으로 억제함 | activated JNK [6]: 농도 의존적으로 감소함 | activated ERK [7]: 농도 의존적으로 감소함 | activated p38 [8]: 농도 의존적으로 감소함 | activated MK2 [9]: 농도 의존적으로 감소함 | NF-κB complex formation [10]: 감소됨 | AP-1 complex formation [11]: 감소됨 | serum TNF-α level ([12]; 5 mg/kg i.p. daily from 4 days before LPS 5 mg/kg i.p.): 현저히 감소 | serum TNF-α level ([12]; 1 and 5 mg/kg i.p. daily from 4 days before LPS 5 mg/kg i.p., dose dependence): 용량의존적으로 TNF-α수준이 감소 | cerebrospinal fluid TNF-α level ([13]; 1 mg/kg i.p. daily from 4 days before LPS): 통계적으로 의미있는 TNF-α발현 감소 | cerebrospinal fluid TNF-α level ([13]; 5 mg/kg i.p. daily from 4 days before LPS): 통계적으로 의미있는 TNF-α발현 감소 | TNF-α expression in cerebral cortex ([14]; 1 mg/kg i.p.): 비이클 투여와 차이가 없었으나 | decrease of TNF-α expression in cerebral cortex ([14]; 5 mg/kg i.p.): 40% | IL-1β expression in cerebral cortex ([15]; 1 mg/kg i.p.): 비이클 투여와 차이가 없었으나 | decrease of IL-1β expression in cerebral cortex ([15]; 5 mg/kg i.p.): 50% | number of activated microglia ([16]; 1 mg/kg i.p., vs vehicle): 비이클 투여와 차이가 없었으나 | number of activated Iba1-labelled cells (microglia) ([16]; 5 mg/kg i.p., area 500 μm2, control 10.12±1.45, LPS 41.17±2.95, p<0.01 vs vehicle): 20.0±3.82 | infarct volume (infarct volume / whole brain volume × 100) ([17]; MCAo/Rep control 29.17%): 18.90% | decrease of infarct size vs control ([17]; P=0.0452): ~35.21% | neurological score (maximum 18) [18]: 유의적 감소 | brain cell damage by stroke [19]: 극명하게 감소 | number of activated microglia [20]: 47.67±10.73 cells | number of TNF-α producing cells [21]: 402.8±74.73 cells
